{"source": "paper PMC8029449", "about": "(ACS chemical neuroscience, 2021)", "key": {"VSV-eGFP-SARS-CoV-2": {"tested_on": "VSV-eGFP-SARS-CoV-2", "type": "cell-based, vesicular stomatitis virus", "conditions": "25 µM"}, "[1]": {"tested_on": "VEGFR2 phosphorylation at Y1175 in CAD cells", "experiment": "In cell western for inhibition of VEGFR2 activation by VEGF-A165", "type": "cell-based, mouse", "conditions": "compounds at 12.5 μM, 1 nM VEGF-A165, 1 hour"}}}
{"compound": "NC(N)=NCCC[C@H](NC(=O)c1sccc1NS(=O)(=O)c1cccc2nsnc12)C(=O)O", "note": "[Compound A]", "values": [{"measurement": "inhibition of VSV-eGFP-SARS-CoV-2 entry into cells", "setting": "VSV-eGFP-SARS-CoV-2", "result": "ineffective"}, {"measurement": "block of VEGF-A stimulated increased phosphorylation of VEGFR2 (pY1175)", "setting": "[1]", "result": "blocked"}]}
